{"source": "paper PMC10005185", "about": "“Structure-guided engineering of a receptor-agonist pair for inducible activation of the ABA adaptive response to drought” (Science Advances, 2023)", "key": {"HAB1 with PYL2": {"target": "T1, HAB1 with PYL2 (Arabidopsis thaliana, UniProt O80992)", "T1 construct": "His; made in house", "T1 sequence (O80992 whole entry)": "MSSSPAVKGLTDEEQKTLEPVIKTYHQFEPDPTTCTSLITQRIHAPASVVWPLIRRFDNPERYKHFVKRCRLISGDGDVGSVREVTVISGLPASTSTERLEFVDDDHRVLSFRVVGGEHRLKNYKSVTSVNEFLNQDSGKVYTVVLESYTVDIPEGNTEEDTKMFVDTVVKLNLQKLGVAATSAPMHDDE", "T1 sequence (Q9CAJ0 179-511 partner limits assumed)": "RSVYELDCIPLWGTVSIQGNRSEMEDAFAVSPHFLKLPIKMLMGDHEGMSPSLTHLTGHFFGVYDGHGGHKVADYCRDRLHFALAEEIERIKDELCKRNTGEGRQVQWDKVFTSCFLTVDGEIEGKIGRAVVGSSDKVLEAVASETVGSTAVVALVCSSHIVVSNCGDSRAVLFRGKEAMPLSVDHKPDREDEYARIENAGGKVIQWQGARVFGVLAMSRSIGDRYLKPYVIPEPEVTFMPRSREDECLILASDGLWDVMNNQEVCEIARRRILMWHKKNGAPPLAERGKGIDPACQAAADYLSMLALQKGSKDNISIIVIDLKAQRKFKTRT", "assay": "PP2C inhibition assay, HAB1 with PYL2", "type": "biochemical", "conditions": "1 μM iSB09, PYL2", "procedure": "His-tagged receptors and phosphatases were purified using nickel–nitrilotriacetic acid (Ni-NTA) affinity chromatography. Protein integrity was analyzed by SDS–polyacrylamide gel electrophoresis, followed by InstantBlue staining. Phosphatase activity was measured using p-Nitrophenyl Phosphate (pNPP) (25 mM) as substrate, 10 mM MnCl2,1 μM PP2C, and 2 μM of the indicated receptors. Proteins were incubated with the ligands for 10 min at room temperature. pNPP was then added to start the reactions, and the absorbance at 405 nm was monitored for 20 min in a ViktorX5 plate reader. Assays were repeated twice. For dose-response experiments, IC50 values were obtained with GraphPad Prism 9 using a nonlinear regression curve fit. Each ligand concentration was tested in triplicate. Phosphatase activity of ABI1 was measured using RRA(phosphoT)VA peptide as a substrate, as described ([27])."}, "ABA-responsive markers": {"tested_on": "ABA-responsive markers", "assay": "RNA sequencing of ABA-responsive markers", "type": "in vivo, Arabidopsis thaliana", "conditions": "5 μM iSB09, 3 hours", "procedure": "Total RNA was extracted as indicated above. The quality of the samples was verified using Agilent 2100 Bioanalyzer. First-strand cDNA was prepared by an EasyScript One-Step gDNA Removal and cDNA Synthesis SuperMix (TransGen Biotech) with random hexamers. Sequencing of cDNA libraries was performed using the DNB-Seq technology at the Beijing Genomics Institute, producing at least 20 million clean reads per sample of paired-end 100-base pair read lengths. RNA-seq data analysis was carried out by the Bioinformatics core facility at Instituto de Biología Molecular y Celular de […]. After quality analysis of raw reads with FastQC (www.bioinformatics.babraham.ac.uk/projects/fastqc/), and quality trimming and adapter removal of raw reads with cutadapt (http://journal.embnet.org/index.php/embnetjournal/article/view/200), clean read pairs longer than 20 nucleotides were mapped to TAIR10 arabidopsis Col-0 reference genome using HISAT2 with default parameters, and nonuniquely mapped pairs were discarded with SAMtools. The number of read counts that uniquely mapped to each arabidopsis gene (Araport11 annotation) was obtained with HTSeq-count. Genes lacking at least 1 TPM ([…]) in the three replicates of at least one of the two conditions were filtered out, and differential expression analysis of the remaining genes was done with DESeq2. […]"}, "[1]": {"tested_on": "Arabidopsis thaliana seeds (WT Col-0, CsPYL1 and CsPYL1^5m lines)", "assay": "Seed germination assay", "type": "in vivo", "conditions": "for IC50: Arabidopsis thaliana, read-out: Germination IC50", "procedure": "For seed germination assays, seeds were stratified in the dark at 4°C for 3 days. Approximately 100 seeds of each genotype were sown on MS plates supplemented with six different ligand concentrations. The experiments were repeated three times. To score seed germination, radical emergence was analyzed at 24 hours after sowing."}, "[2]": {"tested_on": "Arabidopsis thaliana CsPYL1^5m plants", "assay": "Drought resistance experiments", "type": "in vivo", "conditions": "50 μM", "procedure": "For drought assays under long-day conditions, seeds from WT Col-0 and pAlligator2-35[…] plants were grown in MS medium for 7 days. Then, seedlings were transferred to individual 0.18-liter pots containing equal amount of moisted soil composed of peat, vermiculite, and perlite at 1:0.5:0.5 ratio (v/v). Plants were grown under long-day conditions in a controlled environment growth chamber at 22°C under 16-hour light/8-hour dark photoperiod under well-watered conditions for 3 weeks. Then, watering was withheld for 14 days. […] The first application was performed the same day the watering was withheld, and the second one was performed 7 days later. Watering was restored and survival rate was measured 6 days after […]. Gravimetric analysis of water loss in pots was performed along the experiment. […] Pots were weighted at 7-day intervals. Pictures of the plants were taken at the beginning of the experiment, 26 days after water deprivation and 12 days after […]. Survival rate and foliar leaf area were measured 12 days after […]. For drought experiments, 6 to 10 plants per genotype and treatment were analyzed in each experiment. The experiment was performed twice."}, "[3]": {"tested_on": "RAB18/RD29B gene expression", "assay": "RT-qPCR of RAB18/RD29B expression", "set-up": "species or system Arabidopsis thaliana", "conditions": "in vivo", "procedure": "RNA was extracted from seedlings using NucleoSpin RNA Plant kit from Machery-Nagel, following the manufacturer’s instructions. Complementary DNA (cDNA) was synthesized from 1 μg of total purified RNA using 30 U of RevertAid Reverse Transcriptase (Thermo Fisher Scientific). Reverse transcription quantitative polymerase chain reaction (RT-qPCR) was performed using PyroTaq EvaGreen qPCR Master Mix 5X from Cultek, which includes EvaGreen Dye and carboxy-X-rhodamine (ROX) as a passive reference dye. The primer pairs used for this analysis were described previously ([42]). qPCR was performed in a QuantStudio 3 (Applied Biosystems). Relative quantification of gene expression data was carried out using the 2^−ΔΔCt or comparative Ct method. Expression levels were normalized using the Ct values obtained for the actin-8 gene. The presence of a single PCR product was further verified by dissociation analysis in all amplifications. The mean and SD of three independent experiments are shown."}, "CsPYL1^5m:ΔNHAB1": {"target": "CsPYL1^5m:ΔNHAB1 (Citrus sinensis, UniProt A0A067E666, F137I/T135L/T153I/V112L/V168A)", "sequence (A0A067E666 1-209 V112L/T135L/F137I/T153I/V168A)": "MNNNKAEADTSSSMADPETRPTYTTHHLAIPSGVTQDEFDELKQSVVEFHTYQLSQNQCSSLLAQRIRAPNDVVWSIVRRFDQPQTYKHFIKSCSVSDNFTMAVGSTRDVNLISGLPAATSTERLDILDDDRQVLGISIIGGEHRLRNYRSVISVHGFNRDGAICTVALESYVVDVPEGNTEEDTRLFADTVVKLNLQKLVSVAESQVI", "sequence (Q9CAJ0 179-511 partner)": "as the sequence (Q9CAJ0 179-511 partner limits assumed) above", "assay": "biochemical", "procedure": "To obtain the Kd values, the data were analyzed using nonlinear least-squares regression using a model considering a single set of binding sites implemented in Origin 7.0 (OriginLab)."}}, "note": "Where two headings read alike, the source gives them in different places.", "data": [{"smiles": "CCn1c(=O)cc(C)c2cc(CNS(=O)(=O)c3ccccc3)ccc21", "note": "[iSB09]", "values": [{"measurement": "inhibition at 1 µM", "setting": "HAB1 with PYL2", "result": "60 to 70", "unit": "%"}, {"measurement": "increase of regulation of ABA-responsive markers in CsPYL1^5m background relative to WT", "setting": "ABA-responsive markers", "result": "8- to 10 fold"}, {"measurement": "IC50", "setting": "[1]; WT Col-0", "result": 4390, "unit": "nM"}, {"measurement": "IC50", "setting": "[1]; line expressing CsPYL1", "result": 1360, "unit": "nM"}, {"measurement": "IC50", "setting": "[1]; line expressing CsPYL1^5m", "result": 290, "unit": "nM"}, {"measurement": "inhibition of seed germination, iSB09 relative to iSB07", "setting": "[1]; plants expressing CsPYL1^5m", "result": "threefold more effective"}, {"measurement": "drought resistance compared to mock-treated plants", "setting": "[2]; CsPYL1^5m plants, long-day conditions", "result": "markedly enhanced drought resistance"}, {"measurement": "soil water consumption", "setting": "[2]; CsPYL1^5m plants, long-day, 10 days after stopping irrigation", "result": 40, "unit": "%"}, {"measurement": "drought resistance compared to mock-treated plants", "setting": "[2]; short-day conditions", "result": "enhanced resistance to drought"}, {"measurement": "RAB18/RD29B up-regulation in CsPYL1^5m plants relative to WT plants", "setting": "[3]", "result": "markedly higher"}, {"measurement": "Kd", "setting": "CsPYL1^5m:ΔNHAB1", "result": 560, "unit": "nM"}]}]}
